Consider 13 molecules from patent publication US8846698B2, “Pyrrolo[2,3-d]pyrimidine tropomysin-related kinase inhibitors” (Pfizer Limited, priority 2011, dated 2014).

Each structure is given as a SMILES string. Where two headings read alike, the source gives them in different places.

Data set [1] deals with T1, TRKA (Homo sapiens (Human), UniProt P04629). In words: Isolated TRK enzyme assay (HTRF KinEASE-TK), TRKA. The class given is biochemical. Particulars: isolated TRKA enzyme; read-out: TrkA enzyme potency. In general terms: Time-resolved FRET reads energy transfer from a long-lived donor to a nearby acceptor.
Target sequence in this assay (P04629 441-796): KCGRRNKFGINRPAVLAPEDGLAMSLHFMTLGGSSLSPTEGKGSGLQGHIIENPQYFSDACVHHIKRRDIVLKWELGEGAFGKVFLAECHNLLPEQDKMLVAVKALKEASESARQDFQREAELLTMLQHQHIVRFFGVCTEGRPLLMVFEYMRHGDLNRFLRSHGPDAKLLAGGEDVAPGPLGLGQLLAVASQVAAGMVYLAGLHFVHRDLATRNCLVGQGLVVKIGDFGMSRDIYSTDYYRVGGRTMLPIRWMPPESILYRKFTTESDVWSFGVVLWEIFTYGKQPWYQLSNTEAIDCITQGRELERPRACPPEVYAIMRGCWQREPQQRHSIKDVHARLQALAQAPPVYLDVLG
Data set [2] has as its target T2, TRKB (Homo sapiens (Human), UniProt Q16620). In words: biochemical.
The target in data set [3] is T1, TRKA. In words: Cell based DiscoveRx PathHunter antagonist assay, TRKA cell line. Particulars: read-out: TrkA cell potency.
Target sequence in this assay (P04629 33-796): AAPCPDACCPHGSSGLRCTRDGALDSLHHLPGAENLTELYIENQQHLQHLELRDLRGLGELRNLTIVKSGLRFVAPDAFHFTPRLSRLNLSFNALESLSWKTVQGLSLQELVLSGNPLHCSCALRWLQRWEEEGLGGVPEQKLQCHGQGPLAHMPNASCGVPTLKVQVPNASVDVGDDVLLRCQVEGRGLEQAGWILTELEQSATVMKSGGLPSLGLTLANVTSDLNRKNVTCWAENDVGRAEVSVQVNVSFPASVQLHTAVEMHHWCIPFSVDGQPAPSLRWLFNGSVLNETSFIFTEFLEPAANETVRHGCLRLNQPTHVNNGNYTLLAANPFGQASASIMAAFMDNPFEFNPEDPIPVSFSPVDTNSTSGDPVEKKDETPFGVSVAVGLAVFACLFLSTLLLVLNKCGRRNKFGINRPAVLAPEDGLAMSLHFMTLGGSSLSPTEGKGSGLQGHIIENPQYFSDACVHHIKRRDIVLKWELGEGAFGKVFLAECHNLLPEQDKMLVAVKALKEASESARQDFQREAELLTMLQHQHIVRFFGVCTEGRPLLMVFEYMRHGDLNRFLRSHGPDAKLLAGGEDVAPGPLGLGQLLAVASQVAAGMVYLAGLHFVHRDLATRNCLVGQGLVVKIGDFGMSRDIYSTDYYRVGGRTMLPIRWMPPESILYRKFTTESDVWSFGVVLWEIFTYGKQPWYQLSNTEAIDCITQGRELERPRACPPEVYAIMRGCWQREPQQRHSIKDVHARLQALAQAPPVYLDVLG
In data set [4] the target is T2, TRKB. In words: cell-based. Particulars: TrkB cell potency, TRKB PathHunter cell line.
For data set [5], the target named is TRKC (Homo sapiens (Human), UniProt Q16288). In words: Cell based DiscoveRx PathHunter antagonist assay, TRKC cell line. Particulars: read-out: TrkC cell potency. The method, then: After the Detection Reagent addition, plates are covered and incubated at room temperature for 60 minutes. […] Test compound data are expressed as percentage inhibition defined by HPE and ZPE values for each plate. Percentage inhibition in the presence of test compound is plotted against compound concentration on a log scale to determine an IC50 from the resultant sigmoid curve. Cell Based Assays were carried out using Cell lines from DiscoveRx utilising their PathHunter technology and reagents in an antagonist assay:
The assays are based upon DiscoveRx's proprietary Enzyme Fragment Complementation (EFC) technology. In the case of the TRK cell lines, the enzyme acceptor (EA) protein is fused to a SH2 protein and the TRK receptor of interest has been tagged with a Prolink tag.
Upon neurotrophin binding, the TRK receptor becomes phosphorylated, and the tagged SH2 protein binds.
This means that the IC50 is a good measure of affinity and should be unaffected by concentration neurotrophin stimulant.
Cryopreserved PathHunter cells are used from either in-house produced batches or bulk batches bought directly from DiscoveRx. Cryopreserved cells are resuscitated, spun 1000 rpm for 4 min to remove freezing media, and resuspended in MEM+0.5% horse serum (both Invitrogen) to 5e^5 cells/ml. The cells are then plated using a Multidrop into Greiner white tissue culture treated plates at 20 ul/well and incubated for 24 h at 37° C., 5% CO2, high humidity. On the day of the assay, the cell plates are allowed to cool to room temperature for 30 min prior to the assay.
Plates containing 1 ul of serially diluted compound, standard and HPE/ZPE are diluted 1/66 in assay buffer (PBS minus Ca^2+, minus Mg^2+ with 0.05% pluronic F127) using a Wellmate. […] The plates are left at room temperature for a further 2 hours before addition of 10 ul of the DiscoveRx PathHunter detection reagent (made up by adding 1 part Galacton Star, 5 parts Emerald II and 19 parts Cell Assay Buffer as per the manufacturer's instructions).
After reagent addition, plates are covered and incubated at room temperature for 60 minutes. Luminescence signal is read using an Envision. Test compound data are expressed as percentage inhibition defined by HPE and ZPE values for each plate. Percentage inhibition in the presence of test compound is plotted against compound concentration on a log scale to determine an […] from the resultant sigmoid curve.

The target in data set [6] is MDR1 (Homo sapiens (Human), UniProt P08183). In words: MDCK-MDR1 assay (in vitro brain penetration). The class given is in vitro ADME. Particulars: for Papp B→A / Papp A→B: human; for Papp B→A: read-out: MDCK MDR1 Papp BA; for Papp A→B / MDCK MDR1 Papp AB: MDCK-MDR1, A to B; for Papp A→B: read-out: MDCK MDR1 Papp AB. The text has this: MDCK-MDR1: MDCK-MDR1 data were collected according to the method described in “Are MDCK Cells Transfected with the Human MDR1 Gene a Good Model of the Human Intestinal Mucosa?”
Chain of MDR1 (P08183 whole entry): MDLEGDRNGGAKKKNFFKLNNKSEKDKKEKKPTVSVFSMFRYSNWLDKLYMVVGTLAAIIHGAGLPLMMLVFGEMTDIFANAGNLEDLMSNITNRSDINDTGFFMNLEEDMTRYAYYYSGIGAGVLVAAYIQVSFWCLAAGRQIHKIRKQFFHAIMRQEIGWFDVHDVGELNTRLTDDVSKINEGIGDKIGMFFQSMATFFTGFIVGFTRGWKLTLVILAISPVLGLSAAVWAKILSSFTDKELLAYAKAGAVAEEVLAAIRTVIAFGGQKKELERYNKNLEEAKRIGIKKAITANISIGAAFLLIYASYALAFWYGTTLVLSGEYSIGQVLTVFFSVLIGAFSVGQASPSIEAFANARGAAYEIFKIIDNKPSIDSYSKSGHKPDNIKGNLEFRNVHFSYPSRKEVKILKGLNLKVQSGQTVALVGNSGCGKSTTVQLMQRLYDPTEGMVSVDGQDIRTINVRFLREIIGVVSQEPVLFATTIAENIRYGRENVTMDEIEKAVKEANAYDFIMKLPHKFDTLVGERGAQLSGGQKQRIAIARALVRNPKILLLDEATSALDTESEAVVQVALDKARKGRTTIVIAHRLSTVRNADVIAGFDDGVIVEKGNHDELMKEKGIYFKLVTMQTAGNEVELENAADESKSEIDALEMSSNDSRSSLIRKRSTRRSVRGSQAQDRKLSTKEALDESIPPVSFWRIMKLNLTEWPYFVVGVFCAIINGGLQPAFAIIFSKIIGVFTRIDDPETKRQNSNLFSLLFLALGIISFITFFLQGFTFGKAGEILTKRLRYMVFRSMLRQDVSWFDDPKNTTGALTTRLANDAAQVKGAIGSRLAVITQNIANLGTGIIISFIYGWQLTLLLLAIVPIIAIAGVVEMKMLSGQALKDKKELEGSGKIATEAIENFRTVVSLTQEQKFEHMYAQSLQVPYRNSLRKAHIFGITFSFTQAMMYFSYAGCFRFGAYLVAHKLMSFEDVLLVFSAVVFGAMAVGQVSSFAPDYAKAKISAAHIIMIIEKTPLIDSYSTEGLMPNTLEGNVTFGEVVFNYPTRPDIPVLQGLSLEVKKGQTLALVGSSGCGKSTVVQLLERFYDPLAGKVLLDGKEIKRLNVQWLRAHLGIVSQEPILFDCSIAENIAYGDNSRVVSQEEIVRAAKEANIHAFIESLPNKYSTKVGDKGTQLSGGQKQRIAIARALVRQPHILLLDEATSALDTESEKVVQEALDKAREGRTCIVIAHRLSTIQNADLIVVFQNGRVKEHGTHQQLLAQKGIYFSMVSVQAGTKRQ
http://www.springerlink.com/content/qfhqlqbr4fnp3 khf/fulltext.pdf

Where [7] appears, read: isolated TRKB enzyme, read-out: TrkB enzyme potency.

Chain of TRKC (Q16288 32-839): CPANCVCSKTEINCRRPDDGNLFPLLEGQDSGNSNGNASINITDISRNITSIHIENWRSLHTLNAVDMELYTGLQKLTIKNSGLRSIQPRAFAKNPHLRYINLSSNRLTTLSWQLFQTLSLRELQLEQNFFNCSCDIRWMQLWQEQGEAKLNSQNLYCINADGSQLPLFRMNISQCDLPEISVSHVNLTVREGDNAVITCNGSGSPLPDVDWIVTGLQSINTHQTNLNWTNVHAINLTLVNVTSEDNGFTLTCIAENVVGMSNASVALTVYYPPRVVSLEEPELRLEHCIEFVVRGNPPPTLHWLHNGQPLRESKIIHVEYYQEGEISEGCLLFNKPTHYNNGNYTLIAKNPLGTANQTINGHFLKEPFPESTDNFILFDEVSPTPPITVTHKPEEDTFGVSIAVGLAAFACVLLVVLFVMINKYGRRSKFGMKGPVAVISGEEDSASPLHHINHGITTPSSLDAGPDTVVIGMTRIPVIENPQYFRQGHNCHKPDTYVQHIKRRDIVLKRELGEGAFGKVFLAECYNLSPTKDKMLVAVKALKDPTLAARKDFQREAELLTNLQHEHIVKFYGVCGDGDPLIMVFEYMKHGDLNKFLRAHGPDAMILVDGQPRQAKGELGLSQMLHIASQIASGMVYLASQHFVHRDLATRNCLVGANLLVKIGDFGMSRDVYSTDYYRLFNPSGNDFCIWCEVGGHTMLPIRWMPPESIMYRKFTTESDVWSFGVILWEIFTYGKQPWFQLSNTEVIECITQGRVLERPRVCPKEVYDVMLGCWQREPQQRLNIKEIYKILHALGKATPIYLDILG
T2 sequence (Q16620 32-822 limits assumed): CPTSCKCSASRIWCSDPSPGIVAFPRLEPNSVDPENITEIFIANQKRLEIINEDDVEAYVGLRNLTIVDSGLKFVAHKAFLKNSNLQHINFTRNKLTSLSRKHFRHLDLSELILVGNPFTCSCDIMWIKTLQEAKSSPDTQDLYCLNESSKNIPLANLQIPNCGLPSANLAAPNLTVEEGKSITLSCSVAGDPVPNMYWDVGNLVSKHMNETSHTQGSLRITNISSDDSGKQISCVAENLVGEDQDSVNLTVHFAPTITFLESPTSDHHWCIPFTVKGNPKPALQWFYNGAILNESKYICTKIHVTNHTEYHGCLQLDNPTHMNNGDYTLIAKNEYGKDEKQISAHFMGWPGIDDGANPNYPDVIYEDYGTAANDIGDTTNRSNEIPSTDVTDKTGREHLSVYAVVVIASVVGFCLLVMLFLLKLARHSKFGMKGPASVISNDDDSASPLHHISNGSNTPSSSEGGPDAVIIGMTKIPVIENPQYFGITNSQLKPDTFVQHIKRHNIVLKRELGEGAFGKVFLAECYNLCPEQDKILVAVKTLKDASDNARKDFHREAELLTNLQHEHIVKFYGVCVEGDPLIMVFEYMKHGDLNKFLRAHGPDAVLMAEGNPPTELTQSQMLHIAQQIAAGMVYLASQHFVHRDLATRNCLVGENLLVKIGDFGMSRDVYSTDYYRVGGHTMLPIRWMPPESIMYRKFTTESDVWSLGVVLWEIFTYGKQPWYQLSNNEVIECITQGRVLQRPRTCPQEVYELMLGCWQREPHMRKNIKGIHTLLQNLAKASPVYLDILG

Regarding `CC(CO)n1cc(C(=O)c2cncc(NC(=O)Cc3ccc(Cl)cc3)c2)c2cnc(N)nc21` (single isomer, unassigned) [Example 34, N-(5-{[2-Amino-7-(2-hydroxy-1-methylethyl)-7H-pyrrolo[2,3-d]pyrimidin-5-yl]carbonyl}pyridin-3-yl)-2-(4-chlorophenyl)acetamide], the IC50 in data set [1] stood at 3.6 nM; in data set [2] (setting [7]) it was 200 nM; in data set [3], 23 nM; in data set [4] it was 25 nM; in data set [5] it was 13 nM. Moreover, the Papp B→A in data set [6] (MDCK-MDR1, MDCK-MDR1, B to A) worked out at 11 ×10⁻⁶ cm/s. In data set [6], the Papp A→B is under 1 ×10⁻⁶ cm/s.
For `CC(CO)n1cc(C(=O)c2cncc(NC(=O)Cc3ccc(C(F)(F)F)cc3)c2)c2cnc(N)nc21` (single isomer, unassigned) [Example 36, N-(5-{[2-amino-7-(2-hydroxy-1-methylethyl)-7H-pyrrolo[2,3-d]pyrimidin-5-yl]carbonyl}pyridin-3-yl)-2-[4-(trifluoromethyl)phenyl]acetamide], the IC50 in data set [1] turned out to be 4.5 nM; in data set [2] (setting [7]) it was 303 nM; in data set [3] it was 11 nM; in data set [4] it was 13 nM; in data set [5] it was 13 nM. Moreover, the Papp B→A in data set [6] (MDCK-MDR1, MDCK-MDR1, B to A) came out at 12 ×10⁻⁶ cm/s. In data set [6], the Papp A→B is under 1 ×10⁻⁶ cm/s.
`CC(CO)n1cc(C(=O)c2cncc(NC(=O)Cc3ccc(Cl)cc3)c2)c2cnc(N)nc21` (single isomer, unassigned) [Example 42, N-(5-{[2-amino-7-(2-hydroxy-1-methylethyl)-7H-pyrrolo[2,3-d]pyrimidin-5-yl]carbonyl}pyridin-3-yl)-2-(4-chlorophenyl)acetamide]: the IC50 in data set [1] amounted to 3.8 nM; in data set [2] (setting [7]), 191 nM; in data set [3], 44 nM; in data set [4] it was 27 nM; in data set [5] it was 13 nM. The “MDCK MDR1 Papp AB” value in data set [6] is under 1 ×10⁻⁶ cm/s. In addition, in data set [6] (MDCK-MDR1, B to A), the “MDCK MDR1 Papp BA” value worked out at 9.5 ×10⁻⁶ cm/s.
For `CC(CO)n1cc(C(=O)c2cncc(NC(=O)Cc3ccc(C(F)(F)F)cc3)c2)c2cnc(N)nc21` (single isomer, unassigned) [Example 43, N-(5-{[2-amino-7-(2-hydroxy-1-methylethyl)-7H-pyrrolo[2,3-d]pyrimidin-5-yl]carbonyl}pyridin-3-yl)-2-[4-(trifluoromethyl)phenyl]acetamide], the IC50 amounted to 5.1 nM in data set [1]; 136 nM in data set [2] (setting [7]); 17 nM in data set [3]; 19 nM in data set [4]; 11 nM in data set [5]. Further, in data set [6], the “MDCK MDR1 Papp AB” value was under 1 ×10⁻⁶ cm/s. In data set [6] (MDCK-MDR1, B to A), the “MDCK MDR1 Papp BA” value came out at 13 ×10⁻⁶ cm/s.
Take `CC(C)(C)n1cc(C(=O)c2cncc(NC(=O)Cn3cc(C(F)(F)F)nn3)c2)c2cncnc21` [Example 2, N-{5-[(7-tert-butyl-7H-pyrrolo[2,3-d]pyrimidin-5-yl)carbonyl]pyridin-3-yl}-2-[4-(trifluoromethyl)-1H-1,2,3-triazol-1-yl]acetamide]: the IC50 in data set [1] was 8.4 nM; in data set [2] (TrkB enzyme potency), 113 nM; in data set [3] it was 5.3 nM; in data set [4], 3.9 nM; in data set [5], 1.1 nM. In data set [6], the Papp A→B is under 1 ×10⁻⁶ cm/s. For the same molecule, in data set [6] (MDCK-MDR1, B to A), the Papp B→A was 15 ×10⁻⁶ cm/s.
Regarding `CC(C)(C)n1cc(C(=O)c2cncc(NC(=O)Cn3ccc(C(F)(F)F)n3)c2)c2cncnc21` [Example 5, N-{5-[(7-tert-butyl-7H-pyrrolo[2,3-d]pyrimidin-5-yl)carbonyl]pyridin-3-yl}-2-[3-(trifluoromethyl)-1H-pyrazol-1-yl]acetamide], the IC50 in data set [1] is 2.6 nM; in data set [2] (setting [7]), 73 nM; in data set [3], 3.5 nM; in data set [4] it was 3.6 nM; in data set [5], 2 nM. In addition, the Papp B→A in data set [6] (MDCK-MDR1, MDCK-MDR1, B to A) was 14 ×10⁻⁶ cm/s. Further, the Papp A→B in data set [6] stood at 1.5 ×10⁻⁶ cm/s.
As to `CC(C)(C)n1cc(C(=O)c2cncc(NC(=O)Cn3cc(C(F)(F)F)cn3)c2)c2cncnc21` [Example 8, N-{5-[(7-tert-butyl-7H-pyrrolo[2,3-d]pyrimidin-5-yl)carbonyl]pyridin-3-yl}-2-[4-(trifluoromethyl)-1H-pyrazol-1-yl]acetamide], the IC50 turned out to be 2.4 nM in data set [1]; 15 nM in data set [2] (TrkB enzyme potency); 1.9 nM in data set [3]; 2 nM in data set [4]; 2.3 nM in data set [5]. Besides, in data set [6], the Papp A→B stood at 1.8 ×10⁻⁶ cm/s. The Papp B→A in data set [6] (MDCK-MDR1, B to A) came out at 15 ×10⁻⁶ cm/s.
On to `Cc1cc(C(F)(F)F)nn1CC(=O)Nc1cncc(C(=O)c2cn([C@@H](C)CO)c3ncncc23)c1` [Example 10, N-[5-({7-[(1S)-2-Hydroxy-1-methylethyl]-7H-pyrrolo[2,3-d]pyrimidin-5-yl}carbonyl)pyridin-3-yl]-2-[5-methyl-3-(trifluoromethyl)-1H-pyrazol-1-yl]acetamide], for which the IC50 in data set [1] came out at 5.7 nM; in data set [2] (setting [7]) it was 78 nM; in data set [3] it was 30 nM; in data set [4], 18 nM; in data set [5], 18 nM. The Papp B→A in data set [6] (MDCK-MDR1, MDCK-MDR1, B to A) stood at 14 ×10⁻⁶ cm/s. Also, in data set [6], the Papp A→B is under 1 ×10⁻⁶ cm/s.
In the case of `C[C@@H](CO)n1cc(C(=O)c2cncc(NC(=O)Cc3ccc(Cl)cc3)c2)c2cncnc21` [Example 11, 2-(4-chlorophenyl)-N-[5-({7-[(1S)-2-hydroxy-1-methylethyl]-7H-pyrrolo[2,3-d]pyrimidin-5-yl}carbonyl)pyridin-3-yl]acetamide], the IC50 was determined as 3.3 nM in data set [1]; 197 nM in data set [2] (TrkB enzyme potency); 17 nM in data set [3]; 11 nM in data set [4]; 6.6 nM in data set [5]. The Papp A→B in data set [6] is under 1 ×10⁻⁶ cm/s. In data set [6] (MDCK-MDR1, B to A), the Papp B→A amounted to 23 ×10⁻⁶ cm/s.
With `C[C@@H](CO)n1cc(C(=O)c2cncc(NC(=O)Cc3ccc(Cl)cn3)c2)c2cncnc21` [Example 14, 2-(5-chloropyridin-2-yl)-N-[5-({7-[(1S)-2-hydroxy-1-methylethyl]-7H-pyrrolo[2,3-d]pyrimidin-5-yl}carbonyl)pyridin-3-yl]acetamide], the IC50 in data set [1] is 13 nM; in data set [2] (setting [7]), 773 nM; in data set [3], 41 nM; in data set [4], 15 nM; in data set [5] it was 4.8 nM. Further, in data set [6] (MDCK-MDR1, MDCK-MDR1, B to A), the Papp B→A is 21 ×10⁻⁶ cm/s. The Papp A→B in data set [6] was under 1 ×10⁻⁶ cm/s.
As to `CC(C)(CO)n1cc(C(=O)c2cncc(NC(=O)Cc3ccc(F)cc3F)c2)c2cnc(N)nc21` [Example 50, N-(5-{[2-amino-7-(2-hydroxy-1,1-dimethylethyl)-7H-pyrrolo[2,3-d]pyrimidin-5-yl]carbonyl}pyridin-3-yl)-2-(2,4-difluorophenyl)acetamide], the IC50 in data set [1] was determined as 6.6 nM; in data set [2] (setting [7]), 143 nM; in data set [3] it was 10 nM; in data set [4] it was 2.1 nM. Besides, in data set [6] (MDCK-MDR1, MDCK-MDR1, B to A), the Papp B→A is 24 ×10⁻⁶ cm/s. Besides, the Papp A→B in data set [6] is under 1 ×10⁻⁶ cm/s.
With `CC(C)(CO)n1cc(C(=O)c2cncc(NC(=O)Cn3nc4ccccc4n3)c2)c2cnc(N)nc21` [Example 55, N-(5-{[2-Amino-7-(2-hydroxy-1,1-dimethylethyl)-7H-pyrrolo[2,3-d]pyrimidin-5-yl]carbonyl}pyridin-3-yl)-2-(2H-benzotriazol-2-yl)acetamide], the IC50 came out at 7 nM in data set [1], 179 nM in data set [2] (TrkB enzyme potency), 12 nM in data set [3] and 4.5 nM in data set [4]. Besides, the Papp A→B in data set [6] is under 1 ×10⁻⁶ cm/s. For the same molecule, the Papp B→A in data set [6] (MDCK-MDR1, B to A) stood at 20 ×10⁻⁶ cm/s.
Turning to `CC(C)(CO)n1cc(C(=O)c2cncc(NC(=O)Cn3cc(C4CC4)nn3)c2)c2cnc(N)nc21` [Example 56, N-(5-{[2-Amino-7-(2-hydroxy-1,1-dimethylethyl)-7H-pyrrolo[2,3-d]pyrimidin-5-yl]carbonyl}pyridin-3-yl)-2-(4-cyclopropyl-1H-1,2,3-triazol-1-yl)acetamide], the IC50 in data set [1] was 9.5 nM; in data set [2] (TrkB enzyme potency), 962 nM; in data set [3], 451 nM; in data set [4], 517 nM. Besides, the Papp A→B in data set [6] was 1.1 ×10⁻⁶ cm/s. Further, the Papp B→A in data set [6] (MDCK-MDR1, B to A) is 1 ×10⁻⁶ cm/s.
